According to patent US20140194392A1 (priority 2013, published 2014):

Tests used:
[1] = molecular target: NA of influenza NIBRG14 (H5N1) (Influenza A virus, UniProt Q6DPL2); type: biochemical
Bac-NA^WT = Bac-NA^WT (Influenza A virus, UniProt Q6DPL2); type: biochemical
[2] = system: influenza A/WSN/33 (H1N1); experiment: microbe, parasite or virus in culture; type: cell-based; conditions: MDCK, read-out: EC50 for viral plaque formation
A/Udorn/72 (H3N2) = experiment: microbe, parasite or virus in culture; type: cell-based, influenza A/Udorn/72 (H3N2); conditions: Influenza A virus, H3N2, MDCK, read-out: EC50 for viral plaque formation
A/WSN/33 = type: cell-based, influenza A/WSN/33 (H1N1)
A/WSN/33 (H1N1) = type: cell-based, influenza A/WSN/33 (H1N1)

Chain of Bac-NA^WT (Q6DPL2 63-449 limits assumed): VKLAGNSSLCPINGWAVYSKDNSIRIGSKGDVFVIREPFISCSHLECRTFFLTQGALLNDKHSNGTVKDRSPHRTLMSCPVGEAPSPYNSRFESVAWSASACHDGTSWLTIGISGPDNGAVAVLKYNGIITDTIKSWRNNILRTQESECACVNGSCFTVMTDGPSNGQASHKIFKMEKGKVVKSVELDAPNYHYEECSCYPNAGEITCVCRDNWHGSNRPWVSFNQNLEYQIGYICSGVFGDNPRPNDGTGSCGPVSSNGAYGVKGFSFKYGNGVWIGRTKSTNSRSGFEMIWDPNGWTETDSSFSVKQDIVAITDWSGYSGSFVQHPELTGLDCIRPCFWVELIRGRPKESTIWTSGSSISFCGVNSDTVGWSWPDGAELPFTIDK
Chain of NA of influenza NIBRG14 (H5N1) (Q6DPL2 whole entry, looked up): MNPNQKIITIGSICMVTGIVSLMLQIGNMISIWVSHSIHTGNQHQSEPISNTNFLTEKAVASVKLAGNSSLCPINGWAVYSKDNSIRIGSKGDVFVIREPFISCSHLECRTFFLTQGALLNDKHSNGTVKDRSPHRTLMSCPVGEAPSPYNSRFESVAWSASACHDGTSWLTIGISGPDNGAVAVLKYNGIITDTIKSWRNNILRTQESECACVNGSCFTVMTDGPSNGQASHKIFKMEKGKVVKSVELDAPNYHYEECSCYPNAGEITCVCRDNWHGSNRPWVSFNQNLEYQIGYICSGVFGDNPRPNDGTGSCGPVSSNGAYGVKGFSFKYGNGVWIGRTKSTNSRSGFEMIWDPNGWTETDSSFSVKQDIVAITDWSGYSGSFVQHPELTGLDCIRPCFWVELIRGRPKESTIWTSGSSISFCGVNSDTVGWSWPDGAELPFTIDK

## Nc1c(S(=O)(=O)O)cc(Nc2cccc(S(=O)(=O)CCOS(=O)(=O)O)c2)c2c1C(=O)c1ccccc1C2=O [RB19, remazol brilliant blue R]
[1]
  IC50: 5.7 µM
Bac-NA^WT
  IC50: 3.4 µM
[2]
  EC50: 2.7 µM
A/Udorn/72 (H3N2)
  EC50: 2.8 µM
A/WSN/33
  influenza-induced cytopathic effect: inhibited the influenza-induced cytopathic effect
A/WSN/33 (H1N1)
  virus yields (fluorogenic signal of NA activity): dramatically reduced virus yields
